26 compounds from patent US8455475B2 (Gruenenthal GmbH, priority 2009, dated 2013) can be followed below.

In the first assay the target is T1, rat B1R (bradykinin receptor 1) (Rattus norvegicus, UniProt P97583).
T1 construct: expressed in transfected cells; host or cells: CHO K1 cells
T1 sequence (P97583 1-337): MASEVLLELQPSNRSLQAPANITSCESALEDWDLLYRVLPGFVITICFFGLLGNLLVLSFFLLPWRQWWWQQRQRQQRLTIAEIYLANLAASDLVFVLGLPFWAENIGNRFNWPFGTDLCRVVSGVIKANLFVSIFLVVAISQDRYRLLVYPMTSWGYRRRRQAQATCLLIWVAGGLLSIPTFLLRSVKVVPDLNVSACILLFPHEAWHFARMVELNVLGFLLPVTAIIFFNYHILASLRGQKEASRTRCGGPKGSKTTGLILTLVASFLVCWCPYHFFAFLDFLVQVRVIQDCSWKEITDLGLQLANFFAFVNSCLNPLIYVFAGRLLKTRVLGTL
Description: FLIPR Ca2+ assay (Fluo-4) on CHO K1 cells stably transfected with the B1R gene of the rat (rB1R cells): % inhibition at 10 μM / IC50, agonist Des-Arg9-bradykinin. Format: cell-based. Conditions: CHO-K1, rat B1R. The procedure, abridged: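 Using a two-addition FLIPR protocol, compound (10 μM for % values; concentration series for IC50) was preincubated 10–20 min with Fluo-4-loaded B1R-expressing CHO K1 cells before EC80 agonist challenge. Suppression of Ca2+ inflow, read as peak fluorescence, is expressed relative to maximum achievable inhibition; duplicate/triplicate, ≥2 independent experiments.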
In general, inhibition refers to the change of the read-out against control, counted positive when it falls. Take `CN(C(=O)c1ccccc1Cl)C1CCc2ccc(C(=O)N3CCC4(CCN(C(=O)c5cc(C(C)(C)C)nn5C)CC4)C3)cc21` (centres unmarked) [IND_CC-593, N-[6-[8-(5-tert-Butyl-2-methyl-2H-pyrazole-3-carbonyl)-2,8-diazaspiro[4.5]-decane-2-carbonyl]-2,3-dihydro-1H-inden-1-yl]-2-chloro-N-methyl-benzamide]: the inhibition at 10 µM worked out at 50%. With `O=C(NC1CCc2ccc(C(=O)N3CCC4(CC3)CCN(C(=O)c3ccc(F)cc3F)CC4)cc21)c1ccccc1Cl` (centres unmarked) [IND_CC-600, 2-Chloro-N-[6-[9-(2,4-difluoro-benzoyl)-3,9-diazaspiro[5.5]undecane-3-carbonyl]-2,3-dihydro-1H-inden-1-yl]-benzamide], the inhibition at 10 µM was determined as 100%. Still for that read-out and setting: the value for `CN(C(=O)c1ccccc1Cl)C1CCc2ccc(C(=O)N3CCC4(CCN(C(=O)Cc5ccc(Cl)cc5)CC4)C3)cc21` (centres unmarked) [IND_CC-592, 2-Chloro-N-[6-[8-[2-(4-chlorophenyl)-acetyl]-2,8-diazaspiro[4.5]decane-2-carbonyl]-2,3-dihydro-1H-inden-1-yl]-N-methyl-benzamide] was 85%; that for `N#Cc1cccc(CN2CCC3(CC2)CCN(C(=O)c2ccc4c(c2)C(NC(=O)c2cc(C(F)(F)F)ccc2Cl)CC4)CC3)c1` (centres unmarked) [IND_CC-667, 2-Chloro-N-[6-[9-[(3-cyano-phenyl)-methyl]-3,9-diazaspiro[5.5]undecane-3-carbonyl]-2,3-dihydro-1H-inden-1-yl]-5-(trifluoromethyl)-benzamide] was 85%; that for `COc1cccc(F)c1CN1CCC2(CC1)CCN(C(=O)c1ccc3c(c1)C(NC(=O)c1c(F)cccc1Cl)CC3)CC2` (centres unmarked) [IND_CC-793, 2-Chloro-6-fluoro-N-[6-[9-[(2-fluoro-6-methoxy-phenyl)-methyl]-3,9-diazaspiro[5.5]undecane-3-carbonyl]-2,3-dihydro-1H-inden-1-yl]-benzamide] was 79%.

For the compound `O=C(Nc1cc(F)cc(F)c1)N1CCC2(CC1)CCN(C(=O)c1ccc3c(c1)C(N(C(=O)c1ccccc1Cl)C1CC1)CC3)C2` (centres unmarked) [IND_CC-720, 2-[3-[(2-Chloro-benzoyl)-cyclopropyl-amino]-2,3-dihydro-1H-indene-5-carbonyl]-N-(3,5-difluoro-phenyl)-2,8-diazaspiro[4.5]decane-8-carboxylic acid amide], the inhibition at 10 µM worked out at 80%. On the same count and under the same terms, the value for `CC(C)(C)CC(=O)NC1CCc2ccc(C(=O)N3CCC4(CCN(c5ccncc5)CC4)C3)cc21` (centres unmarked) [IND_CC-374, 3,3-Dimethyl-N-[6-(8-pyridin-4-yl-2,8-diazaspiro[4.5]decane-2-carbonyl)-2,3-dihydro-1H-inden-1-yl]-butyramide] was 103%. Regarding `N#Cc1cccc(NC(=O)N2CCC3(CC2)CCN(C(=O)c2ccc4c(c2)C(NC(=O)c2ccccc2Cl)CC4)CC3)c1` (centres unmarked) [IND_CC-705, 3-[3-[(2-Chloro-benzoyl)amino]-2,3-dihydro-1H-indene-5-carbonyl]-N-(3-cyano-phenyl)-3,9-diazaspiro[5.5]undecane-9-carboxylic acid amide], the inhibition at 10 µM is 101%.

In the case of `CN(C1CCc2ccc(C(=O)N3CCC4(CC3)CCN(c3ccncc3)CC4)cc21)S(=O)(=O)c1ccccc1Cl` (centres unmarked) [IND_CC-325, 2-Chloro-N-methyl-N-[6-(9-pyridin-4-yl-3,9-diazaspiro[5.5]undecane-3-carbonyl)-2,3-dihydro-1H-inden-1-yl]-benzenesulfonic acid amide], the inhibition at 10 µM stood at 102%. Still for that read-out and setting: the value for `Cc1ccc(C(=O)NC2CCc3ccc(C(=O)N4CCC5(CCN(c6ccncc6)CC5)C4)cc32)c(F)c1` (centres unmarked) [IND_CC-319, 2-Fluoro-4-methyl-N-[6-(8-pyridin-4-yl-2,8-diazaspiro[4.5]decane-2-carbonyl)-2,3-dihydro-1H-inden-1-yl]-benzamide] was 102%; that for `N#Cc1ccc(CN2CCC3(CC2)CCN(C(=O)c2ccc4c(c2)C(NC(=O)c2ccccc2Cl)CC4)C3)cc1` (centres unmarked) [IND_CC-561, 2-Chloro-N-[6-[8-[(4-cyano-phenyl)-methyl]-2,8-diazaspiro[4.5]decane-2-carbonyl]-2,3-dihydro-1H-inden-1-yl]-benzamide] was 85%. Turning to `O=C(NC1CCc2ccc(C(=O)N3CCC4(CCN(CCCc5cccc(F)c5)CC4)C3)cc21)c1cccc(Cl)c1Cl` (centres unmarked) [IND_CC-750, 2,3-Dichloro-N-[6-[8-[3-(3-fluorophenyl)-propyl]-2,8-diazaspiro[4.5]decane-2-carbonyl]-2,3-dihydro-1H-inden-1-yl]-benzamide], the inhibition at 10 µM is 99%.

For the compound `O=C(NC1CCc2ccc(C(=O)N3CCC4(CCN(Cc5ccc6ncccc6c5)CC4)C3)cc21)c1cccc(Cl)c1Cl` (centres unmarked) [IND_CC-744, 2,3-Dichloro-N-[6-[8-(quinolin-6-yl-methyl)-2,8-diazaspiro[4.5]decane-2-carbonyl]-2,3-dihydro-1H-inden-1-yl]-benzamide], the inhibition at 10 µM was 71%. Still for that read-out and setting: the value for `O=C(NC1CCc2ccc(C(=O)N3CCC4(CC3)CCN(c3ccncc3)C4)cc21)c1c(F)cccc1C(F)(F)F` (centres unmarked) [IND_CC-377, 2-Fluoro-N-[6-(2-pyridin-4-yl-2,8-diazaspiro[4.5]decane-8-carbonyl)-2,3-dihydro-1H-inden-1-yl]-6-(trifluoromethyl)-benzamide] was 104%. For `O=C(c1ccc2c(c1)C(N(C(=O)c1ccccc1Cl)C1CC1)CC2)N1CCC2(CCN(S(=O)(=O)c3ccc(F)cc3F)CC2)C1` (centres unmarked) [IND_CC-616, 2-Chloro-N-cyclopropyl-N-[6-[8-[(2,4-difluoro-phenyl)sulfonyl]-2,8-diazaspiro[4.5]decane-2-carbonyl]-2,3-dihydro-1H-inden-1-yl]-benzamide], the inhibition at 10 µM was 81%. In the case of `N#Cc1ccccc1CN1CCC2(CC1)CCN(C(=O)c1ccc3c(c1)C(NC(=O)c1c(F)cccc1Cl)CC3)CC2` (centres unmarked) [IND_CC-801, 2-Chloro-N-[6-[9-[(2-cyano-phenyl)-methyl]-3,9-diazaspiro[5.5]undecane-3-carbonyl]-2,3-dihydro-1H-inden-1-yl]-6-fluoro-benzamide], the inhibition at 10 µM amounted to 92%. The same measure, in the same setting: the value for `O=C(NC1CCc2ccc(C(=O)N3CCC4(CC3)CCN(S(=O)(=O)c3ccc(Cl)s3)CC4)cc21)c1ccccc1Cl` (centres unmarked) [IND_CC-608, 2-Chloro-N-[6-[9-[(5-chloro-thiophen-2-yl)sulfonyl]-3,9-diazaspiro[5.5]undecane-3-carbonyl]-2,3-dihydro-1H-inden-1-yl]-benzamide] was 102%; that for `Cc1noc(C)c1CN1CCC2(CC1)CCN(C(=O)c1ccc3c(c1)C(NC(=O)c1cccc(Cl)c1Cl)CC3)C2` (centres unmarked) [IND_CC-723, 2,3-Dichloro-N-[6-[8-[(3,5-dimethyl-isoxazol-4-yl)-methyl]-2,8-diazaspiro[4.5]decane-2-carbonyl]-2,3-dihydro-1H-inden-1-yl]-benzamide] was 55%; that for `Cc1ccccc1C(=O)N(C)C1CCc2ccc(C(=O)N3CCC4(CC3)CCN(c3ccncc3)CC4)cc21` (centres unmarked) [IND_CC-345, N,2-Dimethyl-N-[6-(9-pyridin-4-yl-3,9-diazaspiro[5.5]undecane-3-carbonyl)-2,3-dihydro-1H-inden-1-yl]-benzamide] was 105%.

Take `O=C(NC1CCc2ccc(C(=O)N3CCC4(CCN(CCc5ccccc5)CC4)CC3)cc21)c1cc(Cl)ccc1F` (centres unmarked) [IND_CC-681, 5-Chloro-2-fluoro-N-[6-(9-phenethyl-3,9-diazaspiro[5.5]undecane-3-carbonyl)-2,3-dihydro-1H-inden-1-yl]-benzamide]: the inhibition at 10 µM is 53%.

`Cc1c(CN2CCC3(CC2)CCN(C(=O)c2ccc4c(c2)C(NC(=O)c2cccc(Cl)c2Cl)CC4)C3)cnn1C` (centres unmarked) [IND_CC-722, 2,3-Dichloro-N-[6-[8-[(1,5-dimethyl-1H-pyrazol-4-yl)-methyl]-2,8-diazaspiro[4.5]decane-2-carbonyl]-2,3-dihydro-1H-inden-1-yl]-benzamide]: the inhibition at 10 µM is 81%. `O=C(NC1CCc2ccc(C(=O)N3CCC4(CCN(Cc5c(F)cccc5Cl)CC4)C3)cc21)c1cccc(Cl)c1Cl` (centres unmarked) [IND_CC-725, 2,3-Dichloro-N-[6-[8-[(2-chloro-6-fluoro-phenyl)-methyl]-2,8-diazaspiro[4.5]decane-2-carbonyl]-2,3-dihydro-1H-inden-1-yl]-benzamide]: the inhibition at 10 µM came to 56%. Still for that read-out and setting: the same measure for `N#Cc1ccc(CN2CCC3(CC2)CCN(C(=O)c2ccc4c(c2)C(NC(=O)c2c(F)cccc2Cl)CC4)C3)cc1` (centres unmarked) [IND_CC-739, 2-Chloro-N-[6-[8-[(4-cyano-phenyl)-methyl]-2,8-diazaspiro[4.5]decane-2-carbonyl]-2,3-dihydro-1H-inden-1-yl]-6-fluoro-benzamide]: 83%; for `O=C(NC1CCCCC1)N1CCC2(CC1)CCN(C(=O)c1ccc3c(c1)C(N(C(=O)c1ccccc1Cl)C1CC1)CC3)C2` (centres unmarked) [IND_CC-717, 2-[3-[(2-Chloro-benzoyl)-cyclopropyl-amino]-2,3-dihydro-1H-indene-5-carbonyl]-N-cyclohexyl-2,8-diazaspiro[4.5]decane-8-carboxylic acid amide]: 72%.

Staying with this assay, now noted: rat B1R.
As to “2-Methyl-N-[6-(8-pyridin-4-yl-2,8-diazaspiro[4.5]decane-2-carbonyl)-2,3-dihydro-1H-inden-1-yl]-benzamide [IND_CC-358]”, the “% Inhibition (rat B1R) at 10 μM” value is 104%. Still for that read-out and setting: the same measure for “2,3-Dichloro-N-methyl-N-[6-(9-pyridin-4-yl-3,9-diazaspiro[5.5]undecane-3-carbonyl)-2,3-dihydro-1H-inden-1-yl]-benzenesulfonic acid amide [IND_CC-343]”: 97%.
